Earlier results on 1 substance are cited in patent US12485133B2, “Inhaled ivermectin” (Hovione Scientia Limited, priority 2021, dated 2025).

Some results are limits rather than exact numbers.

Test in data set [1]: not given
This is another data set of the same source.

Test in data set [2]: not given
This is another data set of the same source.

Another data set has as its system SARS-Cov-2. The settings on record: incubated with 5 μM Ivermectin.

In the case of Ivermectin, the “stability under acidic and basic aqueous conditions” value (acidic and basic aqueous conditions) is “degrades”. Further, the “optimal pH for stability” value (aqueous conditions) is on record as 6.3. Moreover, the “solid state stability (degradation in drug substance batches)” value (solid state, 37° C. for 1.5 years) is “no degradation observed”. Besides, the “Log P” value in data set [1] is 4.4. Besides, in data set [2] (hexane), the “solubility in non-polar aprotic solvents such as hexane” value is “completely insoluble”. In addition, the “solubility in methanol and 95% ethanol” value in data set [2] (methanol, 95% ethanol) is recorded as “freely soluble”. The solubility in water in data set [2] (water) is < 1 µg/mL. Moreover, the “time to eliminate the virus from supernatant and infected cells” value with SARS-Cov-2 is ≤ 48 h.
